Results published in article PMC6327993, “Synthesis carbonic anhydrase enzyme inhibition and antioxidant activity of novel benzothiazole derivatives incorporating glycine, methionine, alanine, and phenylalanine moieties” (Journal of Enzyme Inhibition and Medicinal Chemistry, 2018).
pKi: −log10 of the molar value.

Experiments:
hCA V = hCA V (Homo sapiens, UniProt P35218); assay: stopped flow CO2 hydrase assay, hCA V; assay type: biochemical; conditions: mean from three different assays, errors ±5–10%
Experimental: (§1) An applied photophysics stopped-flow instrument has been used for assaying the CA catalysed CO2 hydration activity by using method of Khalifah[34]. Phenol red (at a concentration of 0.2 mM) has been used as an indicator, working at the absorbance maximum of 557 nm, with 20 mM HEPES (pH 7.5) as buffer, and 20 mM Na2SO4 (for maintaining constant the ionic strength), following the initial rates of the CA-catalysed CO2 hydration reaction for a period of 10–100 s. The CO2 concentrations ranged from 1.7 to 17 mM for the determination of the kinetic parameters and inhibition constants. […] The uncatalysed rates were determined in the same manner and subtracted from the total observed rates. Stock solutions of inhibitor (0.1 mM) were prepared in distilled–deionised water and dilutions up to 0.01 nM were done thereafter with the assay buffer. Inhibitor and enzyme solutions were preincubated together for 15 min at room temperature prior to assay, in order to allow the formation of the E–I complex. The inhibition constants were obtained by non-linear least-square methods using PRISM (www.graphpad.com), and non-linear least squares methods, values representing the mean of at least three different determinations, as described earlier by us[35–39].

[1] = DPPH radical scavenging activity
Experimental: Antioxidant activity was determined based on the ability of the antioxidants to act as radical scavengers towards the stable free radical, 1,1-diphenyl-2-picrylhydrazyl (DPPH). As detailed by Yang et al.[40], 1 ml of antioxidant solution (solubilised in ethanol) was added to 3 ml of a 0.1 mM ethanolic solution of DPPH. After 30 min at ambient temperature in darkness, absorbance readings were taken at 517 nm. Inhibition (%) was calculated using the equation [1–(As−Ao)/Ab]×100 where As is the absorbance reading for samples containing antioxidant, Ao is the absorbance of the antioxidant in pure methanol and Ab corresponded to the absorbance of the DPPH solution.

hCA XIII = hCA XIII (Homo sapiens, UniProt Q8N1Q1); assay: stopped flow CO2 hydrase assay, hCA XIII; assay type: biochemical; conditions: mean from three different assays, errors ±5–10%
Experimental: as §1

hCA I = hCA I (Homo sapiens, UniProt P00915); assay: stopped flow CO2 hydrase assay, hCA I; assay type: biochemical; conditions: mean from three different assays, errors ±5–10%
Experimental: as §1

hCA II = hCA II (Homo sapiens, UniProt P00918); assay: stopped flow CO2 hydrase assay, hCA II; assay type: biochemical; conditions: mean from three different assays, errors ±5–10%, read-out: KI hCAII
Experimental: as §1

Sequence of hCA V (P35218 39-305): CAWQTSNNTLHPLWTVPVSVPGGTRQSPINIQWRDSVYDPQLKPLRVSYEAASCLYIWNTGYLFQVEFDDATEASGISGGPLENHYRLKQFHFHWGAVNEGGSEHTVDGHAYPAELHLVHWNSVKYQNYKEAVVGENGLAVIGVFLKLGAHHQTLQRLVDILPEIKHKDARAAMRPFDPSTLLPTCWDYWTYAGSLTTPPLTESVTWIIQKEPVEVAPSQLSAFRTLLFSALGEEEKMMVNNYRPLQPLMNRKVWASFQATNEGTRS
Sequence of hCA I (P00915 whole entry): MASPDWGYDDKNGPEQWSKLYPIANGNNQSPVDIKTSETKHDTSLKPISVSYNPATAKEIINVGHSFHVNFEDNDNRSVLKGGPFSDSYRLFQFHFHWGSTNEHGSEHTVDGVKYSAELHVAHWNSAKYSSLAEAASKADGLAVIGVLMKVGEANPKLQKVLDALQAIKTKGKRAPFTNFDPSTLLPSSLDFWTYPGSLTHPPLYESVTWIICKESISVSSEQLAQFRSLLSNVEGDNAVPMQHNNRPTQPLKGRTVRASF
Sequence of hCA XIII (Q8N1Q1 whole entry): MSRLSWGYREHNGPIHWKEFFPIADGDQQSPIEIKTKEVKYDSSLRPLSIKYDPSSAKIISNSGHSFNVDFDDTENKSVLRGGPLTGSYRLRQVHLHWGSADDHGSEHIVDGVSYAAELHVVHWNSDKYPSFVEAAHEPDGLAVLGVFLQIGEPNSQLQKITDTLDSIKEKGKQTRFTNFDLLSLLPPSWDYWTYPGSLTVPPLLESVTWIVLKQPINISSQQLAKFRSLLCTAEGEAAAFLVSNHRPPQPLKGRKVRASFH

Molecule | pKi (hCA V) | pKi (hCA XIII) | pKi (hCA I) | pKi (hCA II) | melting point | Antioxidant activity, % ([1]; 12.5 μg/ml) | Antioxidant activity, % ([1]; 25 μg/ml) | Antioxidant activity, % ([1]; 37.5 μg/ml) | Antioxidant activity, % ([1]; 62.5 μg/ml) | Antioxidant activity, % ([1]; 125 μg/ml)
Cc1ccc2nc(NC(=O)CNC(=O)OCc3ccccc3)sc2c1 [Compound 1] | 5.37 | 4.02 | 5.37 | 4.49 | 213 to 214 °C | 0% | 0% | 0% | 11.4% | 12.5%
Cc1ccc2nc(NC(=O)CNC(=O)OC(C)(C)C)sc2c1 [Compound 2] | 4.18 | < 4.00 | < 4.00 | 4.13 | 212 to 213 °C | 0% | 0% | 3.9% | 4.6% | 6.1%
Cc1c(C)c2c(c(C)c1O)CC[C@@](C)(CCC[C@H](C)CCC[C@H](C)CCCC(C)C)O2 [α-Toc., α-tocopherol, reference compound] | – | – | – | – | – | 62.9% | 63.4% | 68.4% | 72.8% | 74.0%
CCOc1ccc2nc(NC(=O)CNC(=O)OCc3ccccc3)sc2c1 [Compound 5] | < 4.00 | < 4.00 | < 4.00 | 4.08 | 214 to 215 °C | 12.0% | 15.0% | 25.0% | 32.0% | 38.0%
CSCCC(NC(=O)OCc1ccccc1)C(=O)Nc1ccc(-c2nc3ccc(C)cc3s2)cc1 (centres unmarked) [Compound 13, Benzyl (1-((4–(6-methylbenzo[d]thiazol-2-yl)phenyl)amino)-4-(methylthio)-1-oxobutan-2-yl)carbamate] | 4.39 | 4.07 | < 4.00 | 4.41 | 200 to 201 °C | 5% | 6.7% | 6.1% | 7.1% | 8.2%
Tert-butyl (4–(6-methylbenzo[d]thiazol-2-yl)-3-oxobutan-2-yl)carbamate [Compound 3] | 4.06 | < 4.00 | 4.04 | 4.30 | – | 3.3% | 3.4% | 5.3% | 7.5% | 7.7%
Cc1ccc2nc(NC(=O)CNC(=O)OCC3c4ccccc4-c4ccccc43)sc2c1 [Compound 9, (9H-Fluoren-9-yl)methyl (2-((6-methylbenzo[d]thiazol-2-yl)amino)-2-oxoethyl)carbamate] | 5.14 | < 4.00 | 4.14 | < 4.00 | 220 to 221 °C | 4% | 4.6% | 5.3% | 5.8% | 6.4%
COc1ccc(O)c(C(C)(C)C)c1 [BHA, reference compound] | – | – | – | – | – | 61.1% | 63.0% | 67.5% | 71.0% | 72.4%
Benzyl (3–(6-(methylsulfonyl)benzo[d]thiazol-2-yl)-2-oxopropyl)carbamate [Compound 8] | 5.05 | < 4.00 | 4.05 | < 4.00 | – | 0% | 2.1% | 6.6% | 19.2% | 20.7%

The next lines start with results.

pKi (hCA V) | pKi (hCA XIII) | pKi (hCA I) | pKi (hCA II) | melting point | Molecule | Antioxidant activity, % ([1]; 12.5 μg/ml) | Antioxidant activity, % ([1]; 25 μg/ml) | Antioxidant activity, % ([1]; 37.5 μg/ml) | Antioxidant activity, % ([1]; 62.5 μg/ml) | Antioxidant activity, % ([1]; 125 μg/ml)
4.22 | < 4.00 | < 4.00 | < 4.00 | 171 to 172 °C | CCOc1ccc2nc(NC(=O)CNC(=O)OC(C)(C)C)sc2c1 [Compound 7] | 13.0% | 15.0% | 22.5% | 24.8% | 28.3%
5.54 | < 4.00 | 5.15 | < 4.00 | – | CS(=O)(=O)c1ccc2nc(NC(=O)CNC(=O)OCC3c4ccccc4-c4ccccc43)sc2c1 [Compound 10, (9H-Fluoren-9-yl)methyl(2-((6-(methylsulfonyl)benzo[d]thiazol-2-yl)amino)-2-oxoethyl)carbamate] | 0% | 0% | 22.5% | 23.1% | 24.5%
< 4.00 | < 4.00 | < 4.00 | < 4.00 | – | Tert-butyl (4–(6-methylbenzo[d]thiazol-2-yl)-3-oxo-1-phenylbutan-2-yl)carbamate [Compound 4] | 0% | 5.7% | 5.8% | 9.6% | –
< 4.00 | < 4.00 | < 4.00 | < 4.00 | – | Benzyl (4–(6-ethoxybenzo[d]thiazol-2-yl)-3-oxo-1-phenylbutan-2-yl)carbamate [Compound 6] | 11.0% | 14.0% | 23.0% | 32.0% | 37.0%
4.13 | < 4.00 | < 4.00 | 4.06 | 218 to 219 °C | Cc1cccc2sc(NC(=O)CNC(=O)OCC3c4ccccc4-c4ccccc43)nc12 [Compound 11, (9H-Fluoren-9-yl)methyl (2-((4-methylbenzo[d]thiazol-2-yl)amino)-2-oxoethyl)carbamate] | 5% | 6.7% | 6.9% | 7.1% | 8.2%
< 4.00 | < 4.00 | < 4.00 | 4.43 | 227 to 228 °C | Cc1ccc2nc(-c3ccc(NC(=O)C(Cc4ccccc4)NC(=O)OCc4ccccc4)cc3)sc2c1 (centres unmarked) [Compound 12, Benzyl (1-((4–(6-methylbenzo[d]thiazol-2-yl)phenyl)amino)-1-oxo-3-phenylpropan-2-yl)carbamate] | 0% | 3% | 3.4% | 5.8% | 6.1%
